The text below walks through data of ChEMBL document CHEMBL6177930, “2-(4-Bromobenzyl) tethered 4-amino aryl/alkyl-5,6,7,8-tetrahydrobenzo[4,5]thieno[2,3-d]pyrimidines: design, synthesis, anticancer assessment via dual topoisomerase-I/II inhibition, and in silico studies” (RSC Med Chem, 2025).

Series [1] deals with FaDu. In words: Antiproliferative activity against human FaDu cells assessed as inhibition of cell growth at 10 uM measured after 48 to 72 hrs by MTT assay relative to control. Type of series: functional. The note with it: time 48-72 hrs. (Tetrazolium assays rely on reduction of a dye to a coloured formazan, in cell work by metabolically active cells.)
Series [2] relates to MCF7. As to the kind of experiment: Antiproliferative activity against human MCF7 cells assessed as inhibition of cell growth at 10 uM measured after 48 to 72 hrs by MTT assay relative to control. Type of series: functional. The settings on record: time 48-72 hrs.
Series [3] deals with A549. In words: Antiproliferative activity against human A549 cells assessed as inhibition of cell growth at 10 uM measured after 48 to 72 hrs by MTT assay relative to control. It is filed as functional. The note with it: time 48-72 hrs.
Series [4] concerns MDA-MB-231. As to the kind of experiment: Antiproliferative activity against human MDA-MB-231 cells assessed as inhibition of cell growth at 10 uM measured after 48 to 72 hrs by MTT assay relative to control. Type of series: functional. The settings on record: time 48-72 hrs.
A short description of series [5]: Antiproliferative activity against human HCC cells assessed as inhibition of cell growth at 10 uM measured after 48 to 72 hrs by MTT assay relative to control. It is filed as functional. The settings on record: time 48-72 hrs.
The subject of series [6] is T47D. In words: Antiproliferative activity against human T47D cells assessed as inhibition of cell growth at 10 uM measured after 48 to 72 hrs by MTT assay relative to control. Type of series: functional. The settings on record: time 48-72 hrs.
The subject of series [7] is HEK293. As to the kind of experiment: Antiproliferative activity against HEK293 cells assessed as inhibition of cell growth at 10 to 25 uM measured after 48 to 72 hrs by MTT assay. Type of series: toxicity, cell-based. The note with it: human, hek293, 25 µM; dose lower 10 µM, time lower 48 hrs, dose upper 25 µM, time upper 72 hrs.
The target in series [8] is T1, DNA topoisomerase 1 (Homo sapiens) (UniProt P11387).
T1 sequence (whole entry): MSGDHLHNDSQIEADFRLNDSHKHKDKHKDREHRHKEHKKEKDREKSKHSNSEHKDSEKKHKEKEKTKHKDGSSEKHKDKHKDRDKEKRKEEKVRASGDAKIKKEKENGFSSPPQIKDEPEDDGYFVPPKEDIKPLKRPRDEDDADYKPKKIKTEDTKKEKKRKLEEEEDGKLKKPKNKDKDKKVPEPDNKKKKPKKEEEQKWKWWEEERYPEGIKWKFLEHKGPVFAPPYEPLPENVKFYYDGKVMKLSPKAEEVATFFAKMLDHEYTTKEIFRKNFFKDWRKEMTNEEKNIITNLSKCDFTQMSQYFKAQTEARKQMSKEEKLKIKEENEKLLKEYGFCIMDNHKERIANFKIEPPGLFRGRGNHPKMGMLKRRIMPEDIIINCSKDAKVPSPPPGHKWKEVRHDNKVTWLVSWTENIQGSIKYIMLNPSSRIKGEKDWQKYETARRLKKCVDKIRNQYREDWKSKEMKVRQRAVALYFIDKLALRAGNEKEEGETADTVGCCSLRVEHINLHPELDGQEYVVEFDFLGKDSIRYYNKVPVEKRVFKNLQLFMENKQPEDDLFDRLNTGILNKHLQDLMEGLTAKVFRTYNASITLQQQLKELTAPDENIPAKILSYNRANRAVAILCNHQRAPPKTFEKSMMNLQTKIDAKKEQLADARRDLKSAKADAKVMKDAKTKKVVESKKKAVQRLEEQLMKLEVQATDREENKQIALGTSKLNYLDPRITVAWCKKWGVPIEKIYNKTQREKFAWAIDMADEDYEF
As to the kind of experiment: Inhibition of human topoisomerase-I extracted from baculovirus expression system using SC-DNA as substrate incubated for 30 mins by EtBr staining based agarose gel electrophoresis method.

The target in series [9] is T1, DNA topoisomerase 1 (Homo sapiens). As to the kind of experiment: Inhibition of human topoisomerase-I extracted from baculovirus expression system assessed as relaxation of supercoiled DNA using SC-DNA as substrate incubated for 30 mins by EtBr staining based agarose gel electrophoresis method.
The target of series [10] is DNA topoisomerase 2-alpha (Homo sapiens) (UniProt P11388). In words: Inhibition of human topoisomerase-II alpha assessed as reduction in decatenation activity using kinetoplast DNA as substrate incubated for 30 mins by EtBr staining based agarose gel electrophoresis method.
Series [11] concerns the target T2, Prostaglandin G/H synthase 1 (Ovis aries) (UniProt P05979).
T2 sequence (whole entry): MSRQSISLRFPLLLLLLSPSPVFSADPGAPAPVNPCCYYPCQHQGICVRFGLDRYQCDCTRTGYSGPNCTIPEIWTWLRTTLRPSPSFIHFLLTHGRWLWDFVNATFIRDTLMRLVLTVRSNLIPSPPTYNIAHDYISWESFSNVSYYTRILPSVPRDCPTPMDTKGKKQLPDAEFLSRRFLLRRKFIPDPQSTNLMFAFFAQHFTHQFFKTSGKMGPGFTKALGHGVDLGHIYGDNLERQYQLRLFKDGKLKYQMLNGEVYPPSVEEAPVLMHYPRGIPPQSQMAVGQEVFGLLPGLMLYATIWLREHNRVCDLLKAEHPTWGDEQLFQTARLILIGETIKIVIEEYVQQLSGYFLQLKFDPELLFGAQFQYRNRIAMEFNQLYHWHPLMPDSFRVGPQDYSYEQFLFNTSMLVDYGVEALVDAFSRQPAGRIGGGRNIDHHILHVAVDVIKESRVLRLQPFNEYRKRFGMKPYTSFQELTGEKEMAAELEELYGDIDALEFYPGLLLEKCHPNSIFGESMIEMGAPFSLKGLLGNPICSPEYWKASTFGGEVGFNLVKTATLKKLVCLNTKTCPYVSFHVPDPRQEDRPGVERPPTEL
In words: Inhibition of ovine COX-1 at 10 uM relative to control.

Series [12] addresses T3, Prostaglandin G/H synthase 2 (Homo sapiens) (UniProt P35354).
T3 sequence (whole entry): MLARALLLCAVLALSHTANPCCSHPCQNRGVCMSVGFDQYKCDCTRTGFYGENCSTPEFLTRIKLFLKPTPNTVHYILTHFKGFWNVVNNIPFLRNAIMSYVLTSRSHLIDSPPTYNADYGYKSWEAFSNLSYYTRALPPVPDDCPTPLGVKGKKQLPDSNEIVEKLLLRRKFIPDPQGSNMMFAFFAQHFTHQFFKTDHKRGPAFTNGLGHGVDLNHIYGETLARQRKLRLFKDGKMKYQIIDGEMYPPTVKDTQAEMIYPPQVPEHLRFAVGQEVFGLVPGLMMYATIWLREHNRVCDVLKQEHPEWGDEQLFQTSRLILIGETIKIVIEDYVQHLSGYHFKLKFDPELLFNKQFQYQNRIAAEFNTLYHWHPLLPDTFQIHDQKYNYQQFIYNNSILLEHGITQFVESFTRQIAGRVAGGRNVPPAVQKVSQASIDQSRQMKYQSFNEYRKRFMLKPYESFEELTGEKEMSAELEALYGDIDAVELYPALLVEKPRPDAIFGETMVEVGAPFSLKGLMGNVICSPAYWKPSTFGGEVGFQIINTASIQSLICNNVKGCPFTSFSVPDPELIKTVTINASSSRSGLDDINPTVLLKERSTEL
In words: Inhibition of human recombinant COX-2 at 10 uM relative to control.

DNA topoisomerase 2-alpha (Homo sapiens), sequence (P11388 whole entry): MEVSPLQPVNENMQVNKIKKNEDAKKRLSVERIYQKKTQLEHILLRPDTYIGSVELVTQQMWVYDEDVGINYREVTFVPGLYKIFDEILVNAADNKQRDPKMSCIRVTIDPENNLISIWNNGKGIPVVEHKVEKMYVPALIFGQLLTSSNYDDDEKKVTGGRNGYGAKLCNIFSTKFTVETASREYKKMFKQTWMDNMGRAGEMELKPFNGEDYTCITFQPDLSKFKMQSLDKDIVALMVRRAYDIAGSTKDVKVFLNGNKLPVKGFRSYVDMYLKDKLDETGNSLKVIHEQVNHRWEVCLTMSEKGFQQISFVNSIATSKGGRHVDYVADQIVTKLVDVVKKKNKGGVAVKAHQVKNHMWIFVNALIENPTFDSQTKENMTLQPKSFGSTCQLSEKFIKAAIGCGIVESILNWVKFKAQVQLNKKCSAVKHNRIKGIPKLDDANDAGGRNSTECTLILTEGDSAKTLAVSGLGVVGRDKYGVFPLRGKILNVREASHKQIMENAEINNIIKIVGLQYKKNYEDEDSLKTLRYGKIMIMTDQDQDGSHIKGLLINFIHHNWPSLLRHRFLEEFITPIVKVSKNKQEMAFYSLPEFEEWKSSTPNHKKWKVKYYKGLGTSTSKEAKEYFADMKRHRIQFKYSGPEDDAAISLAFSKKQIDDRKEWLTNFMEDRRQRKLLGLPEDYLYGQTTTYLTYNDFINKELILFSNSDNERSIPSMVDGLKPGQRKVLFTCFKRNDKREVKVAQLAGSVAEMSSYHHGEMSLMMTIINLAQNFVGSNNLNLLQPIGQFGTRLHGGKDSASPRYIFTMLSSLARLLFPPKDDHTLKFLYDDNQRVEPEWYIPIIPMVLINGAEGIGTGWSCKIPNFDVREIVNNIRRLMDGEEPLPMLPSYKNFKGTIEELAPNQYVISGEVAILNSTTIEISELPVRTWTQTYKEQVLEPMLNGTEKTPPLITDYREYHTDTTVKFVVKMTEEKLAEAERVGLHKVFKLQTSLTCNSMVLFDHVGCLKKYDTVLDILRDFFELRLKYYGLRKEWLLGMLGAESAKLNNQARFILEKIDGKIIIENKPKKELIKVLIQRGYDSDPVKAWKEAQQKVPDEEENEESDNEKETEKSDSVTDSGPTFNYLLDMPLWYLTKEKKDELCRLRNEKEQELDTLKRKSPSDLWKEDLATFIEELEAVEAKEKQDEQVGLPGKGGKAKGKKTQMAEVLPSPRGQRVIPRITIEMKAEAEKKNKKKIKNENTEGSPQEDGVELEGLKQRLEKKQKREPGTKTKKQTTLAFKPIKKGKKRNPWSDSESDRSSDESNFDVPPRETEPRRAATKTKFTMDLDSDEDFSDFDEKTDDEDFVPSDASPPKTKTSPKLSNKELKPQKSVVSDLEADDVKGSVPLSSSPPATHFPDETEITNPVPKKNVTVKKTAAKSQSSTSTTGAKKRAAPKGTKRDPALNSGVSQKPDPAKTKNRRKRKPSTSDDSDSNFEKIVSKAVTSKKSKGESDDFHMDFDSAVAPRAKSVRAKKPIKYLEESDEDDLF

As for `Brc1ccc(Cc2nc(NCCN3CCNCC3)c3c4c(sc3n2)CCCC4)cc1`, the inhibition (in general, the percentage by which the read-out fell short of the control) at 10 µM turned out to be 74.7% in series [1]; 19.4% in [2]; 34.2% in series [3]; 1.23% in series [4]; 1.24% in [5]; 54% in series [6]. In addition, the Activity entry in series [7] was “Non-toxic”. The inhibition result in [8] is “Active; Compound Showed Potent Inhibition Activity Than Camptothecin”; in series [9], “Active; Compound Showed Significant Inhibition Than Compound 7A”; in series [10], “Active; Compound Showed Weak Effect”; in series [11] it was 28.5%; in series [12], 57.9%.

As to `CCN(CC)c1nc(Cc2ccc(Br)cc2)nc2sc3c(c12)CCCC3`, the inhibition at 10 µM in [1] was 34.2%; in series [2] it was 15.7%; in [3], 2.22%; in [4], 1.91%; in series [5] it was 1.47%; in series [6] it was 2.88%.

As for `Brc1ccc(Cc2nc(NCc3ccccc3)c3c4c(sc3n2)CCCC4)cc1`, the inhibition at 10 µM in series [1] was 24.3%; in [2], 0.55%; in series [3], 3.12%; in series [4], 4.99%; in series [5] it was 1.79%; in series [6] it was 11.2%.

Consider `CC(C)(C)OC(=O)N1CCN(c2nc(Cc3ccc(Br)cc3)nc3sc4c(c23)CCCC4)CC1`, for which the inhibition at 10 µM in series [1] was 16.6%; in series [2] it was 15.1%; in [3], 0.29%; in [4], 38.9%; in series [5] it was 2.01%; in series [6] it was 3.33%.

In the case of `C=CCNc1nc(Cc2ccc(Br)cc2)nc2sc3c(c12)CCCC3`, the inhibition at 10 µM in series [1] came out at 45.2%; in series [2], 20.5%; in series [3], 2.89%; in series [4] it was 1.17%; in series [5], 1.55%; in series [6], 2.35%.

`Clc1ccccc1CNc1nc(Cc2ccc(Br)cc2)nc2sc3c(c12)CCCC3`: the inhibition at 10 µM in series [1] stood at 18.1%; in [2], 9.51%; in series [3], 2.67%; in series [4] it was 0.1%; in series [5] it was 1.55%; in series [6] it was 3.69%.

Regarding `Brc1ccc(Cc2nc(NCc3ccccn3)c3c4c(sc3n2)CCCC4)cc1`, the inhibition at 10 µM stood at 29.1% in [1]; 4.03% in series [2]; 3.32% in series [3]; 1.25% in series [4]; 2.05% in series [5]; 17.9% in series [6].

Turning to `COc1ccc(CNc2nc(Cc3ccc(Br)cc3)nc3sc4c(c23)CCCC4)cc1`, the inhibition at 10 µM in [1] came out at 26.8%; in series [2], 29.6%; in series [3] it was 1.69%; in series [4] it was 13.7%; in series [5] it was 1.01%; in series [6], 1.05%.

Turning to `Brc1ccc(Cc2nc(N3CCCC3)c3c4c(sc3n2)CCCC4)cc1`, the inhibition at 10 µM in [1] was determined as 49.2%; in [2], 19.4%; in series [3], 10.3%; in series [4] it was 8.72%; in [5], 1.36%; in series [6] it was 3.74%.
